These results are taken from patent US20110020494A1, “GROWTH MEDIUM FOR LACTIC ACID BACTERIA” (priority 2007, published 2011).

This experiment concerns mesophilic culture of Lactococcus. As to the kind of experiment: Growth of Lactococcus with formate and purine supplementation: pH of inoculated milk over time. The following applies: milk 1% fat, 32° C., inoculation 0.022%, IMP 10 ppm, NaF 5 ppm. The experiment is classed as cell-based. As for the experimental part: In these experiments, the growth of Lactococcus in the presence of supplemented formate and purine was investigated. Equal amounts of milk (pasteurized milk w/1% fat) were added to four 1 liter Pyrex bottles. The bottles were placed in the water bath at 32° C.
All bottles were inoculated with a mesophilic culture of Lactococcus (0.022%). When the milk reached 32° C., three of the four bottles were supplemented with Na formate and/or disodium-5′-inosinate (IMP), as shown below.
The initial pH of the milk was recorded. The pH in the bottles was measured every hour for the first two hours and then every half hour until a pH of around 4.6 was reached.
The pH of each of the bottles, as a function of time, is shown below, and graphed in FIG. 1.

In turn, `O=C[O-].[Na+]` [NaF, sodium formate] registered a pH (time 0 hours (initial pH)) of 6.54; a pH (time 1 hour) of 6.48; a pH (time 2 hours) of 6.29; a pH (time 2.6 hours) of 6.03; a pH (time 3 hours) of 5.79; a pH (time 3.5 hours) of 5.51. For the same compound, the pH is reported as 5.26 (time 4 hours), 4.66 (time 5.1 hours) and 4.54 (time 5.6 hours).
With disodium-5′-inosinate [IMP], the pH (time 0 hours (initial pH)) is recorded as 6.54; the pH (time 1 hour) turned out to be 6.48; the pH (time 2 hours) was determined as 6.27; the pH (time 2.6 hours) is 5.98; the pH (time 3 hours) is reported as 5.73; the pH (time 3.5 hours) is on record as 5.42. The pH came to 5.17 (time 4 hours), 4.6 (time 5.1 hours) and 4.5 (time 5.6 hours).
